Assay results reported in PMC11738990, “A small-molecule TNIK inhibitor targets fibrosis in preclinical and clinical models” (Nature Biotechnology, 2024).
Where “and” joins values, the source holds several entries; their conditions need not be identical. Identical values can stand only once. Like-named read-outs stand apart in the source and are kept apart here.

Assays:
A549 cells = details: for E-Cadherin/GAPDH normalized: DMSO=1; for N-Cadherin/GAPDH normalized / Smad2/3/GAPDH normalized / p- Smad2/3/GAPDH normalized / b-catenin/ HDAC2 normalized / b-catenin/ Histone 3 normalized / b-catenin/ tubulin normalized: TGF-β=1; for P65/GAPDH normalized / p-P65/GAPDH normalized: TGF-β+TNF-a=1
C57BL/6 mice [1] = assay: Unilateral ureteral obstruction (UUO) kidney fibrosis model; details: for Positive area (%), per mouse: Fig 5B-D Individual Values;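 for all read-outs here: mice had the left ureter ligated on day 0, received treatment from day 0 through day 14 and were killed on day 14 for kidney analysis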
Description: The surgery took place on two separate days. Mice were divided into two slots based on their body weight before the day of the surgery. On day 0 (day of surgery), UUO surgery was performed after administration of three types of mixed anesthetic agents (medetomidine, midazolam, butorphanol). Mice were shaved at the incision site, the abdomen was cut open, and the left ureter was exteriorized and ligated with 4-0 silk sutures at two points. Finally, the peritoneum and the skin were closed with sutures.
Treatments were applied from day 0 to day 14. And animals were killed on day 14, and blood and tissue samples were collected.
Frozen kidney samples were processed by an alkaline acid hydrolysis method as follows. […] Next, AC buffer (2.2 M acetic acid and 0.48 M citric acid, 400 μl) was added to the samples, followed by centrifugation to collect the supernatant. […] The samples were then mixed with Ehrlich’s solution (400 μl) and heated at 65 °C for 20 min to develop color. After samples were cooled on ice and centrifuged to remove precipitates, the optical density of each supernatant was measured at 560 nm. Hydroxyproline concentrations were calculated from the hydroxyproline standard curve. Kidney hydroxyproline contents were expressed as μg per mg protein, and the amount of protein was determined using the BCA Protein Assay Kit (Thermo Fisher Scientific).
At the end of the UUO study, the left kidney was fixed in Bouin’s solution and embedded in paraffin. Kidney sections were stained using picro-Sirius red solution (Waldeck). To quantify the interstitial fibrosis area, brightfield images in the corticomedullary region were captured using a digital camera (DFC295) at 200-fold magnification, and the positive areas in five fields per section were measured using ImageJ software (National Institute of Health).
Paraffin sections were deparaffinized and hydrophilized with xylene, 100–70% alcohol series and RO water, and then circles were drawn around the kidney sections. […] After washing with PBS, kidney sections were treated with PBS with Tween-20 (PBST), followed by incubation with Block Ace (DS Pharma Biomedical) at room temperature for 10 min. The sections were incubated with the primary antibody (anti-collagen I) at 4 °C overnight. After washing with PBS, kidney sections were treated with PBST, followed by incubation with secondary antibody at room temperature for 30 min. After washing with PBS, kidney sections were fixed with 1% glutaraldehyde solution at room temperature for 1 min. After washing with RO water, kidney sections were treated with PBST and then colored using a chromogenic substrate (Simple Stain DAB, Nichirei Bioscience). After washing with RO water, kidney sections were immersed in an eightfold-diluted hematoxylin solution for 1 min and washed with RO water immediately. […] For scoring of IHC analyses, brightfield images were captured using a digital camera (DFC295) at 200-fold magnification, and the score in one field per section was determined.

NHDF cells = assay: Fibronectin and procollagen I in supernatant (ELISA); assay type: cell-based, human; details: TGF-β 10 ng/ml, 72 h
Description: The medium was then replaced with assay medium containing or not containing (control conditions) the test compounds, and TGF-β (10 ng ml^−1) was added or not (unstimulated control). […] Fibronectin and procollagen I contents were measured in the culture supernatants using specific ELISA kits (Takara, MK115 for fibronectin and MK101 for procollagen type I) according to the supplier’s instructions.

C57BL/6 mice [2] = assay: Bleomycin-induced lung fibrosis model, combination with pirfenidone; assay type: in vivo, mouse; details: INS018_055 3mpk BID; 3 mg/kg
Description: Mice received bleomycin on day 1 at a dose of 0.66 mg per kg (equivalent to 1 U per kg), in a volume of 50 μl by intratracheal administration, or received saline (sham group). On day 7, dosing with the corresponding compounds was started. The vehicle group (group 1) was treated with 0.5% methylcellulose BID. […] On days 5 and 21, lung function measurement was performed. On day 28, all animals were killed, and blood and tissue samples were collected along with BALF.
Lung function was measured according to the HDB standard protocol. Expiratory time, relaxation time, peak expiratory flow and peak inspiratory flow were collected and used to calculate Penh data.
Lung sections were cut at a thickness of 4 μm, dried in an oven for 1 h and stained with M&T using our standard protocol. Briefly, sections were stained with Weigert’s iron hematoxylin working solution for 10 min, stained in Biebrich scarlet–acid fuchsin solution for 10 min, differentiated in phosphomolybdic–phosphotungstic acid solution for 5 min or until the collagen was not red, transferred to aniline blue solution, stained for 1 min and then dedifferentiated in 1% acetic acid solution. Next, sections were dehydrated and coverslipped for subsequent image analysis. For image analysis of collagen deposition, Masson’s trichrome-stained slides were scanned by using Aperio ScanScope Model CS2 (Leica) at ×200 magnification. Images were then opened with HALO. Using the pen tool, the whole left lung section was selected as an annotation layer. The area occupied by blue collagen fibers was measured using the pen tool. The percentage of fibrosis (positive areas) in the selected annotation was then calculated with the program. Fibrosis was expressed as a percentage per lung section.
Sections (4 μm thick) were placed on slides, and, after overnight drying, paraffin was removed with xylene. Next, sections were placed in a graded ethanol series and immersed in distilled water. After heat-induced citrate antigen (pH 6.0) unmasking, sections were immersed in 3% hydrogen peroxide solution for 5 min. […] Next, secondary antibodies conjugated to HRP were added. For image analysis of fibrosis, stained sections were used and scanned with the Aperio CS2 Scanner machine. Images were then opened with HALO. Using the pen tool, the whole left lung section was selected as an annotation layer. The bronchus was excluded in the annotation layer. The area occupied by collagen fibers was measured using the ‘Area Quantification v2.1.3’ module. The percentage of positive areas in the selected annotation was then calculated using the program.

[3] = 0.1 μM, TGF-β+TNF-a group, Batch 1
[4] = 0.1 μM, TGF-β+TNF-a group, Batch 2
[5] = 0.1 μM, TGF-β+TNF-a group, Batch 3
[6] = 0.3 μM, TGF-β+TNF-a group, Batch 1
[7] = 0.3 μM, TGF-β+TNF-a group, Batch 2
[8] = 0.3 μM, TGF-β+TNF-a group, Batch 3
[9] = 1 μM, TGF-β+TNF-a group, Batch 1
[10] = 1 μM, TGF-β+TNF-a group, Batch 2
[11] = 1 μM, TGF-β+TNF-a group, Batch 3
[12] = 3 μM, TGF-β+TNF-a group, Batch 1
[13] = 3 μM, TGF-β+TNF-a group, Batch 2
[14] = 3 μM, TGF-β+TNF-a group, Batch 3
[15] = INS018_055 3 mg/kg BID, individual animals, Fig 5C-D, 3 mg/kg
[16] = INS018_055 10 mg/kg BID, individual animals, Fig 5C-D, 10 mg/kg
[17] = INS018_055 30 mg/kg BID, individual animals, Fig 5C-D, 30 mg/kg

## CC(C)n1cnc(-c2ccc(F)cc2)c1-c1nc(C(=O)Nc2ccc(N3CCN(C)CC3)cc2)c[nH]1 [INS018_055, 2-[4-(4-fluorophenyl)-1-(prop-2-yl)imidazol-5-yl]-N-[4-(4-methylhexahydropyrazin-1-yl)phenyl]-1H-imidazole-4-carboxamide]
A549 cells; 0.1 μM, Batch 1
  E-Cadherin/GAPDH normalized: 0.882
  N-Cadherin/GAPDH normalized: 0.7004
  Smad2/3/GAPDH normalized: 1.169
  p- Smad2/3/GAPDH normalized: 0.1198
A549 cells; 0.1 μM, Batch 2
  E-Cadherin/GAPDH normalized: 0.7553
  N-Cadherin/GAPDH normalized: 0.5859
  Smad2/3/GAPDH normalized: 1.386
  b-catenin/ HDAC2 normalized: 0.9011
  b-catenin/ Histone 3 normalized: 1.011
  b-catenin/ tubulin normalized: 0.7986
  p- Smad2/3/GAPDH normalized: 0.1997
A549 cells; 0.1 μM, Batch 3
  E-Cadherin/GAPDH normalized: 1.033
  N-Cadherin/GAPDH normalized: 0.3543
  Smad2/3/GAPDH normalized: 0.9832
  b-catenin/ HDAC2 normalized: 0.6944
  b-catenin/ Histone 3 normalized: 1.35
  b-catenin/ tubulin normalized: 1.101
  p- Smad2/3/GAPDH normalized: 0.212
A549 cells; 0.1 μM, Batch 4
  b-catenin/ HDAC2 normalized: 1.905
  b-catenin/ Histone 3 normalized: 0.9078
  b-catenin/ tubulin normalized: 1.377
A549 cells; 0.1 μM, TGF-β group, Batch 1
  P65/GAPDH normalized: 0.4666
  p-P65/GAPDH normalized: 0.1387
A549 cells; 0.1 μM, TGF-β group, Batch 2
  P65/GAPDH normalized: 0.8513
  p-P65/GAPDH normalized: 0.05722
A549 cells; 0.1 μM, TGF-β group, Batch 3
  P65/GAPDH normalized: 0.4658
  p-P65/GAPDH normalized: 0.04967
A549 cells; [3]
  P65/GAPDH normalized: 0.668
  p-P65/GAPDH normalized: 0.6884
A549 cells; [4]
  P65/GAPDH normalized: 0.75
  p-P65/GAPDH normalized: 0.7416
A549 cells; [5]
  P65/GAPDH normalized: 0.4563
  p-P65/GAPDH normalized: 0.5057
A549 cells; 0.3 μM, Batch 1
  E-Cadherin/GAPDH normalized: 1.52
  N-Cadherin/GAPDH normalized: 0.1615
  Smad2/3/GAPDH normalized: 1.047
  p- Smad2/3/GAPDH normalized: 0.03
A549 cells; 0.3 μM, Batch 2
  E-Cadherin/GAPDH normalized: 1.01
  N-Cadherin/GAPDH normalized: 0.2158
  Smad2/3/GAPDH normalized: 1.249
  b-catenin/ HDAC2 normalized: 0.8061
  b-catenin/ Histone 3 normalized: 0.5919
  b-catenin/ tubulin normalized: 0.4991
  p- Smad2/3/GAPDH normalized: 0.1456
A549 cells; 0.3 μM, Batch 3
  E-Cadherin/GAPDH normalized: 0.9712
  N-Cadherin/GAPDH normalized: 0.1387
  Smad2/3/GAPDH normalized: 1.033
  b-catenin/ HDAC2 normalized: 0.9297
  b-catenin/ Histone 3 normalized: 0.5389
  b-catenin/ tubulin normalized: 1.411
  p- Smad2/3/GAPDH normalized: 0.1442
A549 cells; 0.3 μM, Batch 4
  b-catenin/ HDAC2 normalized: 0.672
  b-catenin/ Histone 3 normalized: 0.7931
  b-catenin/ tubulin normalized: 1.498
A549 cells; 0.3 μM, TGF-β group, Batch 1
  P65/GAPDH normalized: 0.4013
  p-P65/GAPDH normalized: 0.07454
A549 cells; 0.3 μM, TGF-β group, Batch 2
  P65/GAPDH normalized: 0.8627
  p-P65/GAPDH normalized: 0.05473
A549 cells; 0.3 μM, TGF-β group, Batch 3
  P65/GAPDH normalized: 0.4505
  p-P65/GAPDH normalized: 0.04515
A549 cells; [6]
  P65/GAPDH normalized: 0.6352
  p-P65/GAPDH normalized: 0.6859
A549 cells; [7]
  P65/GAPDH normalized: 0.8628
  p-P65/GAPDH normalized: 0.7296
A549 cells; [8]
  P65/GAPDH normalized: 0.342
  p-P65/GAPDH normalized: 0.3802
A549 cells; 1 μM, Batch 1
  E-Cadherin/GAPDH normalized: 1.5017
  N-Cadherin/GAPDH normalized: 0.1538
  Smad2/3/GAPDH normalized: 1.22
  p- Smad2/3/GAPDH normalized: 0.02816
A549 cells; 1 μM, Batch 2
  E-Cadherin/GAPDH normalized: 1.0948
  N-Cadherin/GAPDH normalized: 0.1737
  Smad2/3/GAPDH normalized: 1.233
  b-catenin/ HDAC2 normalized: 0.9055
  b-catenin/ Histone 3 normalized: 0.7183
  b-catenin/ tubulin normalized: 0.408
  p- Smad2/3/GAPDH normalized: 0.1116
A549 cells; 1 μM, Batch 3
  E-Cadherin/GAPDH normalized: 1.05
  N-Cadherin/GAPDH normalized: 0.09916
  Smad2/3/GAPDH normalized: 1.054
  b-catenin/ HDAC2 normalized: 0.9651
  b-catenin/ Histone 3 normalized: 0.7434
  b-catenin/ tubulin normalized: 0.8806
  p- Smad2/3/GAPDH normalized: 0.1186
A549 cells; 1 μM, Batch 4
  b-catenin/ HDAC2 normalized: 1.855
  b-catenin/ Histone 3 normalized: 0.679
  b-catenin/ tubulin normalized: 1.374
A549 cells; 1 μM, TGF-β group, Batch 1
  P65/GAPDH normalized: 0.3482
  p-P65/GAPDH normalized: 0.05447
A549 cells; 1 μM, TGF-β group, Batch 2
  P65/GAPDH normalized: 0.9166
  p-P65/GAPDH normalized: 0.06504
A549 cells; 1 μM, TGF-β group, Batch 3
  P65/GAPDH normalized: 0.4988
  p-P65/GAPDH normalized: 0.05557
A549 cells; [9]
  P65/GAPDH normalized: 0.397
  p-P65/GAPDH normalized: 0.497
A549 cells; [10]
  P65/GAPDH normalized: 0.7304
  p-P65/GAPDH normalized: 0.6585
A549 cells; [11]
  P65/GAPDH normalized: 0.3751
  p-P65/GAPDH normalized: 0.3266
A549 cells; 3 μM, Batch 1
  E-Cadherin/GAPDH normalized: 1.832
  N-Cadherin/GAPDH normalized: 0.1802
  Smad2/3/GAPDH normalized: 1.447
  p- Smad2/3/GAPDH normalized: 0.01636
A549 cells; 3 μM, Batch 2
  E-Cadherin/GAPDH normalized: 1.252
  N-Cadherin/GAPDH normalized: 0.1613
  Smad2/3/GAPDH normalized: 1.278
  b-catenin/ HDAC2 normalized: 1.403
  b-catenin/ Histone 3 normalized: 0.21
  b-catenin/ tubulin normalized: 0.2321
  p- Smad2/3/GAPDH normalized: 0.09113
A549 cells; 3 μM, Batch 3
  E-Cadherin/GAPDH normalized: 1.09
  N-Cadherin/GAPDH normalized: 0.0841
  Smad2/3/GAPDH normalized: 1.0906
  b-catenin/ HDAC2 normalized: 0.958
  b-catenin/ Histone 3 normalized: 0.258
  b-catenin/ tubulin normalized: 1.067
  p- Smad2/3/GAPDH normalized: 0.09865
A549 cells; 3 μM, Batch 4
  b-catenin/ HDAC2 normalized: 2.079
  b-catenin/ Histone 3 normalized: 0.1136
  b-catenin/ tubulin normalized: 1.238
A549 cells; 3 μM, TGF-β group, Batch 1
  P65/GAPDH normalized: 0.5411
  p-P65/GAPDH normalized: 0.07665
A549 cells; 3 μM, TGF-β group, Batch 2
  P65/GAPDH normalized: 0.9083
  p-P65/GAPDH normalized: 0.116
A549 cells; 3 μM, TGF-β group, Batch 3
  P65/GAPDH normalized: 0.5638
  p-P65/GAPDH normalized: 0.08352
A549 cells; [12]
  P65/GAPDH normalized: 0.3919
  p-P65/GAPDH normalized: 0.3522
A549 cells; [13]
  P65/GAPDH normalized: 0.5755
  p-P65/GAPDH normalized: 0.6038
A549 cells; [14]
  P65/GAPDH normalized: 0.3478
  p-P65/GAPDH normalized: 0.3112
C57BL/6 mice [1]; [15]
  Fibrosis area (sirius red positive area): 2.24 and 2.26 and 1.61 and 1.34 and 1.14 and 1.04
  Kidney hydroxyproline: 6.42 and 7.24 and 6.97 and 8.63 and 7.89 and 3.86 and 2.76 and 8.85
C57BL/6 mice [1]; [16]
  Fibrosis area (sirius red positive area): 0.48 and 0.7 and 0.89 and 0.94 and 0.99 and 0.64 and 0.93 and 1.12
  Kidney hydroxyproline: 4.39 and 2.86 and 3.32 and 6 and 3.14 and 6.84 and 3.33 and 3
C57BL/6 mice [1]; [17]
  Collagen Type 1 score: 2
  Fibrosis area (sirius red positive area): 0.44 and 0.53 and 0.81 and 0.2 and 0.68 and 0.43 and 0.38 and 0.73
  Kidney hydroxyproline: 2.37 and 2.39 and 2.44 and 2.78 and 2.29 and 3.08 and 2.31
C57BL/6 mice [1]; INS018_055 high dose group, value per mouse (501-508) over 5 photos
  Positive area (%), per mouse: 0.43% and 0.38% and 0.73% and 0.44% and 0.53% and 0.81% and 0.20% and 0.68%
C57BL/6 mice [1]; INS018_055 low dose group, value per mouse (301-308) over 5 photos
  Positive area (%), per mouse: 1.34% and 1.14% and 1.04% and 2.24% and 2.26% and 1.61%
C57BL/6 mice [1]; INS018_055 middle dose group, value per mouse (401-408) over 5 photos
  Positive area (%), per mouse: 0.94% and 0.99% and 0.64% and 0.93% and 1.12% and 0.48% and 0.70% and 0.89%
NHDF cells; read-out: IC50, fibronectin in supernatant
  IC50: ~135 nM
NHDF cells; read-out: IC50, procollagen I in supernatant
  IC50: ~232 nM
C57BL/6 mice [2]
  Modified Ashcroft Score: 5.75 and 4.5 and 3
